This note sets out measurements from patent US6046228A, “Anti-viral pharmaceutical compositions containing saturated 1,2-dithiaheterocyclic compounds and uses thereof” (priority 1999, dated 2000).

Molecules are shown by their SMILES. Where two headings read alike, the source gives them in different places.

One may read the EC50 as the concentration giving half of the maximal effect. In general, IC50 refers to the midpoint of a concentration-inhibition curve.

For one test, the system named is HIV-1 N119(Nev^R). Description: XTT cytopathicity assay, nevirapine-resistant N119. It counts as cell-based. The settings on record: CEM-SS. As for the experimental part: (§1) Initial anti-HIV screening was performed with CEM-SS cells and HIV-1RFusing the XTT cytoprotection assay as previously described (Weislow et al., J. National Cancer Inst. 81: 577-586, (1989)). HIV-1 isolates included common laboratory stains (RF, IIIB and MN), as well as a panel of HIV-1 clinical isolates (Cushman et al., J. Med. Chem. 37: 3040-3050, (1994)). The pyridone-resistant HIV-1A17 isolate (Nunberg et al., J. Virol., 65: 4887-4892 (1991)) was obtained from Emilio Emini at Merck Sharpe and Dohme Laboratories. Phytohemagglutinin-stimulated human peripheral blood lymphocytes (PBLs) and fresh monocyte-macrophage (Mono/MF) cultures were prepared and utilized in antiviral assays as previously described (Rice et al., Proc. Nat'l. Academy Science, USA 90: 9721-9724, (1993)); (Cushman et al., J. Med. Chem. 37: 3040-3050, (1994)). EC50 values for these cultures indicate the drug concentration that provided a 50% reduction in viral p24 production. […] The compounds can be synthesized according to the teachings of Singh et al., Sulfur Letters 8: 107-114, (1988). The 4,5-cis-dihydroxy(1,1-dioxy-1,2,-dithiohexane) compound (NSC 624151) has been abbreviated as 624151 for convenience. […]
A general note: Formazan colour is commonly taken as a measure of viable cells.

Test [1] concerns fusion of cells expressing CD4 and gp120. Description: fusion of target cells expressing CD4 and gp120. It counts as cell-based. The settings on record: in words.
Test [2] deals with T1, p7NC protein in intact HIV-1MN virions (HIV-1 M:B_MN, UniProt P05888).
T1 construct: cut from Gag polyprotein Pr55gag (also Gag-Pol Pr160)
In words: p7NC immunoblot of treated intact virions, non-reducing SDS-PAGE. It counts as biochemical. The settings on record: for detectable virion p7NC / cross-linkage of virion NC proteins: HIV-1MN, FIG. 2(A). How it is done: Fluorescence measurements of the Trp^37 residue in the C-terminal zinc finger of the recombinant HIV-1 p7NC protein were performed as previously described (Rice et al., Science 270:1194, 1995). The p7NC protein was prepared at 20 μg/ml in 10 mM sodium phosphate buffer (pH 7.0), treated with 25 μM of each compound, then after indicated time intervals the samples were diluted 1/10 in 10 mM sodium phosphate buffer (pH 7.0) and the fluorescence intensity measured. The excitation and emission wavelengths utilized with the Shimadzu RF5000 spectrofluorimeter were 280 nm and 351 nm, respectively. In an alternate assay, the zinc-selective fluorescent probe N-(6-methoxy-8quinolyl-)-p-toluenesulfonamide (TSQ, Molecular Probes, Eugene, Oreg.) originally described by Fredrickson (J. Neurosci. Meth. 20:91, 1987) was utilized to measure zinc released from the p7NC protein in vitro. Briefly, 2 μM recombinant HIV-1 p7NC protein in 10 mM sodium phosphate buffer, pH 7.0, 10% glycerol was treated with 10 μM 624151 ([…] total volume in 96-well plates), and the time-dependent increase in fluorescence was measured on a Labsystems Fluoroskan II (360 nm excitation filter and 460 nm emission filter) over a period of 2 hours. Induction of alterations of p7NC proteins within intact virions involved treatment of HIV-1MN for 1 hour at 37° C. with 25 μM test compound. Samples were centrifuged 1 hour at 4° C. under 18,000×g to pellet the virus from the drug. Virus pellets were resolved by non-reducing SDS-PAGE and analyzed by immunoblot using monospecific rabbit antisera to the purified p7NC protein.
In order to determine if the 624151 entered intact HIV-1 virions and affected the p7NC protein zinc fingers, purified HIV-1MN was treated with increasing concentrations of the compound and the viral proteins were then separated by non-reducing SDS-PAGE and immunoblotted with monospecific antisera to the p7NC protein (FIG. 2(A)). […] Thus, 624151 effectively entered and inactivated cell-free HIV-1 virions by chemically attacking the p7NC CCHC zinc fingers and promoting cross-linkage among the p7NC proteins.

Another test deals with CEM-SS cells. In words: XTT assay, cytotoxicity (IC50), CEM-SS cells. It counts as cell-based.
For another test, the system named is HIV-1 VIHU(NSI). In words: antiviral assay in PBL (p24), clinical isolate VIHU. The settings on record: Human immunodeficiency virus 1, cell-free p24. It counts as cell-based. How it is done:
as §1

Another test deals with HIV-1RF. Description: XTT cytoprotection (cytopathicity) anti-HIV assay, CEM-SS cells. It counts as cell-based.
Where [3] appears, read: non-reducing SDS-PAGE, in words.

Turning to `O=S1(=O)C[C@H](O)[C@H](O)CS1` (relative stereo) [NSC 624151, cis-1,1-dioxo[1,2]dithiane-4,5-diol], the EC50 with HIV-1 N119(Nev^R) is 18 µM; in the test with HIV-1 VIHU(NSI), 12 µM; with HIV-1RF (Human immunodeficiency virus 1, CEM-SS, CEM-SS cells, HIV-1RF, read-out: XTT Assay EC50), 6.6 µM; in the test with HIV-1RF (Human immunodeficiency virus 1, CEM-SS, CEM-SS, RF, Table 2, read-out: EC50) it was 6.6 µM; in the test with HIV-1RF (Human immunodeficiency virus 1, CEM-SS, Table 5, read-out: EC50 Duplicates), 9.53 µM; in the test with HIV-1RF (Human immunodeficiency virus 1, CEM-SS, Table 5, read-out: EC50 Mean) it was 12.2 µM. The EC50 with HIV-1RF (Human immunodeficiency virus 1, CEM-SS, XTT cytopathicity assay, Table 4, read-out: Infection EC50 (Mean ± S.D., n = 6)) stood at 7.85 ± 5.5 µM; with HIV-1RF (Table 5, read-out: EC50 Duplicates) it was 14.9 µM. Besides, in test [1], the inhibition of fusion result is reported as “did not inhibit”. The “detectable virion p7NC / cross-linkage of virion NC proteins” value is “enter intact virions and cause disulfide cross-linkage between virion NC proteins” in test [2] (setting [3]); “decreases in the amounts of detectable virion p7NC” in test [2] (non-reducing SDS-PAGE, in words, listed as 624151). Also, the “interactions with other viral proteins” value in test [2] (setting [3]) is “no interactions with other proteins was observed”. For the same compound, the “virion p7NC profile under reducing conditions” value in test [2] (reducing conditions (not shown)) was “no alterations in the virion p7NC profile were observed”. Besides, the IC50 in the test on CEM-SS cells (Homo sapiens, CEM-SS, Table 5, cytotoxicity, read-out: IC50 Duplicates) was determined as 116 µM; with CEM-SS cells (Homo sapiens, CEM-SS, Table 5, cytotoxicity, read-out: IC50 Mean), 122 µM; in the test with CEM-SS cells (Homo sapiens, CEM-SS, cytotoxicity, CEM-SS cells, read-out: XTT Assay IC50), 184 µM; with CEM-SS cells (Table 5, cytotoxicity, read-out: IC50 Duplicates), 127 µM. The “EC50 relative to enantiomer or racemate” value in the test with HIV-1RF (in words) is “the average of these EC50 s is equivalent to the EC50 for the racemic mixture”.
